Experimental findings from US7927639B2, “Mixture of Propionibacterium jensenii and Lactobacillus sp. with antimicrobial activities for the use as natural preservation system” (Eidgenossische Technische Hochschule Zurich, priority 2001, dated 2011) are described below.

Common to all, as to assay type: cell-based
For assay [1], the system named is fungi listed in Table 1. The experiment in a line: Antifungal activities in agar plates (overall statements). As to conditions: YM agar plates stored at 6° C. The procedure:
(§1) Agar plates were prepared, supplemented with Propionbacterium jensenii SM11 or an antimicrobial Lactobacillusor a combination of both. The cultures were previously grown separately for 72 h at 32° C. in supplemented whey permeate (SWP1), centrifugated, washed once and resuspended (1:1) in 0.85% NaCl and then serially diluted in dilution-buffer (0.85% NaCl, 0.1% peptone). Portions of 20 ml of agar were prepared with 10% of each dilution to give a final level of 10^5, 10^6, 10^7 and 10^8 cfu/ml. Agar plates were poured and after solidifying, portions of approximately 2-5 μl of broth cultures of the indicator strains were spot inoculated on the plates. YM agar was used for yeasts and moulds and BHI agar for bacteria. Triplex of the agar plates were stored at 6° C., 12° C. and 25° C. for up to 4 weeks and the growth of indicator organisms was controlled weekly for 6° C. or daily for 12° C. and 25° C. As a control, agar plates without supplementation of lactobacilli and propionibacteria were prepared as well as agar plates with an addition of 1 g/l Ka-Sorbat (EU-Richtlinie, Nr. 95/2/HG).
A total of 18 lactobacilli were tested for their antifungal activities alone or in combination with the high-antifungal Propionibacterium jensenii SM11. […]

In assay [2] the test system is Candida magnoliae 1-35/1. The experiment in a line: Antifungal activity in agar plates. The conditions noted are these: storage 21 days at 6° C.; cultures incorporated in agar plates at 10^8 cfu/ml (SM17, SM39 10^7 cfu/ml); Ka-Sorbat 1 g/l; spot-inoculation with 10^6 cfu/ml. As to the method: as §1
(§2) A total of 18 lactobacilli were tested for their antifungal activities alone or in combination with the high-antifungal Propionibacterium jensenii SM11. Therefore, the strains were incorporated, after centrifugation and a washing step in concentrations from 10^5 to 10^8 cfu/ml in YM agar plates on which the fungi listed in Table 1 were spotted in corresponding levels from 10^1 to 10^7 cfu/ml. The plates were stored in different batches at 6° C., 12° C. and 25° C. The growth of yeasts was controlled weekly or daily, respectively. […] A cell number of 10^8 cfu/ml of the Lactobacillus-strain and 10^8 cfu/ml of the Propionibacterium-strain was necessary for high inhibitory activities. Table 4 indicates five examples of the antifungal activities observed at 6° C. with a concentration of 10^8 cfu/ml (10^7 cfu/ml for Lactobacillus plantarum SM17) against spot-inoculated yeasts in a density of 10^6 cfu/ml and against spot-inoculated 3-day cultures of moulds.

For assay [3], the system named is Sporobolomyces salmonicolor 3-46/2. The experiment in a line: Antifungal activity in agar plates. As to conditions: storage 21 days at 6° C.; cultures incorporated in agar plates at 10^8 cfu/ml (SM17, SM39 10^7 cfu/ml); Ka-Sorbat 1 g/l; spot-inoculation with 10^6 cfu/ml. The procedure: as §1, §2
For assay [4], the system named is Candida reukaufii 4-73/4. The experiment in a line: Antifungal activity in agar plates. As to conditions: storage 21 days at 6° C.; cultures incorporated in agar plates at 10^8 cfu/ml (SM17, SM39 10^7 cfu/ml); Ka-Sorbat 1 g/l; spot-inoculation with 10^6 cfu/ml. The procedure:
as §1, §2

Assay [5] relates to Candida parapsilosis 4-5/1. The experiment in a line: Antifungal activity in agar plates. The conditions noted are these: storage 21 days at 6° C.; cultures incorporated in agar plates at 10^8 cfu/ml (SM17, SM39 10^7 cfu/ml); Ka-Sorbat 1 g/l; spot-inoculation with 10^6 cfu/ml. As to the method:
as §1, §2

For assay [6], the system named is Candida krusei 3-69/2. The experiment in a line: Antifungal activity in agar plates. The conditions noted are these: storage 21 days at 6° C.; cultures incorporated in agar plates at 10^8 cfu/ml (SM17, SM39 10^7 cfu/ml); Ka-Sorbat 1 g/l; spot-inoculation with 10^6 cfu/ml. As to the method:
as §1, §2

Assay [7] relates to Zygosaccharomyces bailii 1-48/1. The experiment in a line: Antifungal activity in agar plates. The conditions noted are these: storage 21 days at 6° C.; cultures incorporated in agar plates at 10^8 cfu/ml (SM17, SM39 10^7 cfu/ml); Ka-Sorbat 1 g/l; spot-inoculation with 10^6 cfu/ml. The procedure: as §1, §2
Assay [8] has as its system Candida sp. 1-50/15. The experiment in a line: Antifungal activity in agar plates. The conditions noted are these: storage 21 days at 6° C.; cultures incorporated in agar plates at 10^8 cfu/ml (SM17, SM39 10^7 cfu/ml); Ka-Sorbat 1 g/l; spot-inoculation with 10^6 cfu/ml. As to the method:
as §1, §2

The test system of assay [9] is Candida valida 1-48/8. The experiment in a line: Antifungal activity in agar plates. As to conditions: storage 21 days at 6° C.; cultures incorporated in agar plates at 10^8 cfu/ml (SM17, SM39 10^7 cfu/ml); Ka-Sorbat 1 g/l; spot-inoculation with 10^6 cfu/ml. The procedure:
as §1, §2

In assay [10] the test system is Candida silvicola 4-42/1. The experiment in a line: Antifungal activity in agar plates. The conditions noted are these: storage 21 days at 6° C.; cultures incorporated in agar plates at 10^8 cfu/ml (SM17, SM39 10^7 cfu/ml); Ka-Sorbat 1 g/l; spot-inoculation with 10^6 cfu/ml. The procedure:
as §1, §2

Assay [11] concerns Candida pulcherrima 1-50/13. The experiment in a line: Antifungal activity in agar plates. As to conditions: storage 21 days at 6° C.; cultures incorporated in agar plates at 10^8 cfu/ml (SM17, SM39 10^7 cfu/ml); Ka-Sorbat 1 g/l; spot-inoculation with 10^6 cfu/ml. As to the method: as §1, §2

With `C/C=C/C=C/C(=O)[O-].[K+]` [Ka-Sorbat], in [1], the “antifungal (inhibitory) activity in agar plates, in words” value was “weaker inhibitory activity”. Also, the “colony growth of Candida magnoliae 1-35/1” value in assay [2] is on record as “++ (++ strong colony (≈0% inhibition))”. The “colony growth of Sporobolomyces salmonicolor 3-46/2” value in assay [3] was “− (− no colony (≈100% inhibition))”. Also, in assay [4], the “colony growth of Candida reukaufii 4-73/4” value is reported as “++ (++ strong colony (≈0% inhibition))”. For the same molecule, the “colony growth of Candida parapsilosis 4-5/1” value in [5] is “− (− no colony (≈100% inhibition))”. For the same molecule, the “colony growth of Candida krusei 3-69/2” value in assay [6] is recorded as “− (− no colony (≈100% inhibition))”. Moreover, the “colony growth of Zygosaccharomyces bailii 1-48/1” value in [7] was “− (− no colony (≈100% inhibition))”. Further, the “colony growth of Candida sp. 1-50/15” value in [8] is on record as “++ (++ strong colony (≈0% inhibition))”. Also, the “colony growth of Candida valida 1-48/8” value in assay [9] is reported as “− (− no colony (≈100% inhibition))”. The “colony growth of Candida silvicola 4-42/1” value in [10] is on record as “++ (++ strong colony (≈0% inhibition))”. Moreover, in assay [11], the “colony growth of Candida pulcherrima 1-50/13” value is recorded as “++ (++ strong colony (≈0% inhibition))”.
